Reference: US10729674B2, “Nanoparticle isoflavone compositions and methods of making and using the same” (Humanetics Corporation, priority 2010, dated 2020)
≈ marks a conversion by molar mass, not a printed value. Where two headings read alike, the source gives them in different places.

Assays:
[1] = Solubility of genistein in vehicles at 25° C.; assay type: physicochemical
Procedure: Calculated pka's for genistein range from 7-9, with the predicted solubility increasing above pH 7 in accordance with the lowest pKa. The calculated properties were used to design the appropriate pH range for the pH-solubility profile of genistein in several acceptable cosolvents, which was established to be pH 6-9.
The solubility of genistein in water is not detectable at pH 6-7, which implies the solubility is less than 0.02 mg/mL or ˜0.00002 g/g H2O (lowest concentration), Based on the pH-solubility and solubility in cosolvents, it was determined that PEG400 would be the cosolvent to achieve highest solubility. Since parenteral formulations preferably have a maximum of 50% organic component, the addition of Ethanol (EtOH), Nmethylpyrrolidone (NMP) and a surfactant were considered, since these would be expected to enhance absorption from the injection site. Ethanol has the added benefit of reducing viscosity. […] Solubility was further evaluated in two aqueous/organic mixtures with concentrations acceptable for a parenteral dosage form. Additionally, cyclodextrin formulations were evaluated.

[2] = 25° C.; cited from earlier work
[3] = Pharmacokinetics and excretion in mice after IV or IM 14C-Genistein (Example 8); assay type: in vivo; details: for Bioavailibility / AUC0-inf / AUC0-tlast / Cmax / Extrapolation / ke1 / tlast: male CD1 mice, total radioactivity; for Bioavailibility: Group 2 single IM 200 mg/kg vs IV; for Excretion recovery: by 168 hours post dose
Procedure: As shown in the results of Table 10, male CD1 mice were administered a single IM dose (Group 2, nominal 200 mg/kg) or a single IV bolus dose (Group 3, nominal 50 mg/kg) of ^14C-Genistein. The genistein formulation used was a suspension formulation that includes genistein suspended in sterile water with 0.2% (w/w) Polysorbate 80 and 5% (w/w) PVP K17. […] Following dosing, the content and concentration of radioactivity in blood, plasma, excreta and carcass, and the non-compartmental pharmacokinetics of total radioactivity in whole blood and plasma were determined, Following dose administration, the extent and severity of any clinical signs was assessed.
(§1) Whole-blood samples were collected and plasma was obtained by centrifugation. The concentration of radioactivity in whole-blood and plasma was measured by liquid scintillation spectroscopy.

[4] = Radiochemical stability of the test article in dose formulations; assay type: physicochemical; details: for mean stability value (radiochemical): dog study; for mean radiochemical stability: mouse study
Procedure: The concentration of radioactivity in both dose formulations was measured pre and post dose by liquid scintillation spectroscopy and was similar on both occasions. The radiochemical stability of the test article in both dose formulations was assessed prior to and following the administration of the dose. The mean radiochemical stability of the test article in the dose formulation samples from the intramuscular dose formulation (Group 2) were 98.5% and 98.2%, respectively. The mean radiochemical stability values for pre and post dose samples from the intravenous dose formulation (Group 3) were 98.3% and 98.5%, respectively. Therefore, the ^14C-Genistein in both formulations was considered to have been radiochemically stable throughout the dosing period.
(§2) Male Beagle dogs were administered a single IV bolus dose (Group 1, nominal 20 mg/kg) or a single IM dose (Group 2, nominal 20 mg/kg) of 14C-Genistein (results shown in Table 11). The Genistein suspension formulation used was prepared as described in Example 8, Following dosing, the content and concentration of radioactivity in blood, plasma and excreta, and the non-compartmental pharmacokinetics of total radioactivity in whole blood and plasma were determined. The concentration of radioactivity in both dose formulations was measured pre and post dose by liquid scintillation spectroscopy and was similar on both occasions. The radiochemical stability of the test article in both dose formulations was assessed prior to and following the administration of the dose. The mean stability values for pre and post dose samples from the intravenous dose formulation (Group 1) were 100% and 99.6%, respectively. The mean stability values for pre and post dose samples from the intramuscular dose formulation (Group 2) were 99.2% and 98.9%, respectively. Therefore, the ^14C-Genistein in both formulations was considered to have been radiochemically stable throughout the dosing period.

[5] = Pharmacokinetics and excretion in Beagle dogs after IV or IM 14C-Genistein (Example 9); assay type: in vivo; details: for AUC0-inf / AUC0-tlast / Cmax / Extrapolation / ke1 / tlast / Bioavailibility: male Beagle dogs, total radioactivity; for Bioavailibility: Group 2 single IM 20 mg/kg vs IV, from AUC0-tlast
Procedure: as §2, §1

[6] = Group 2 single IM 200 mg/kg, blood
[7] = Group 2 single IM 200 mg/kg, plasma
[8] = Group 3 single IV bolus 50 mg/kg, blood
[9] = Group 3 single IV bolus 50 mg/kg, plasma
[10] = Group 1 single IV bolus 20 mg/kg, blood
[11] = Group 1 single IV bolus 20 mg/kg, plasma
[12] = Group 2 single IM 20 mg/kg, blood
[13] = Group 2 single IM 20 mg/kg, plasma

O=c1c(-c2ccc(O)cc2)coc2cc(O)cc(O)c12 [Genistein, 5,7-dihydroxy-3-(4-hydroxyphenyl)-chromen-4-one]
solubility ([1]; 25 °C, aqueous with cosolvent or surfactant or cyclodextrin, thermodynamic from solid, 30% Hydroxypropyl-β-cyclodextrin, read-out: Solubility of GENISTEIN at 25° C.): 6 mg/mL (≈ 22.2 mM) | solubility ([1]; 25 °C, aqueous with cosolvent or surfactant or cyclodextrin, thermodynamic from solid, 30% Sulfobutylether-β-cyclodextrin, read-out: Solubility of GENISTEIN at 25° C.): 8 mg/mL (≈ 29.6 mM) | solubility ([1]; 25 °C, organic solvent or mixture, thermodynamic from solid, Dimethyl acetamide (DMA), read-out: Solubility at 25° C.): 141 mg/mL (≈ 523 mM) | solubility ([1]; 25 °C, organic solvent or mixture, thermodynamic from solid, Ethanol, read-out: Solubility at 25° C.): 25 mg/mL (≈ 92.5 mM) | solubility ([1]; 25 °C, organic solvent or mixture, thermodynamic from solid, N-methyl pyrrolidone (NMP), read-out: Solubility at 25° C.): 238 mg/mL (≈ 881 mM) | solubility ([1]; 25 °C, organic solvent or mixture, thermodynamic from solid, Polyethylene Glycol 300 (PEG300), read-out: Solubility at 25° C.): 110 mg/mL (≈ 409 mM) | solubility ([1]; 25 °C, organic solvent or mixture, thermodynamic from solid, Polyethylene Glycol 400 (PEG400), read-out: Solubility at 25° C.): 115 mg/mL (≈ 426 mM) | solubility ([1]; 25 °C, organic solvent or mixture, thermodynamic from solid, Propylene Glycol, read-out: Solubility at 25° C.): 6.2 mg/mL (≈ 22.9 mM) | solubility ([1]; 25 °C, pH 6, aqueous buffer, thermodynamic from solid, pH 6-7, not detectable, lowest concentration, read-out: solubility in water): < 0.02 mg/mL | solubility ([1]; 25 °C, pH 7, aqueous with cosolvent or surfactant or cyclodextrin, thermodynamic from solid, 10% Polysorbate 80/10% EtOH/40% PEG400/40% 25 mM Phosphate Buffered Saline (pH 7), read-out: Solubility of GENISTEIN at 25° C.): 12 mg/mL (≈ 44.4 mM) | solubility ([1]; 25 °C, pH 7, aqueous with cosolvent or surfactant or cyclodextrin, thermodynamic from solid, 10% Polysorbate 80/10% NMP/40% PEG400/40% 25 mM Phosphate Buffered Saline (pH 7), read-out: Solubility of GENISTEIN at 25° C.): 19 mg/mL (≈ 70.3 mM) | solubility ([1]; 25 °C, pH 7, aqueous with cosolvent or surfactant or cyclodextrin, thermodynamic from solid, 10% Polysorbate 80/40% PEG400/50% 25 mM Phosphate Buffered Saline (pH 7), read-out: Solubility of GENISTEIN at 25° C.): 11 mg/mL (≈ 40.7 mM) | solubility at 7 days ([1]; 25 °C, pH 9, aqueous buffer, thermodynamic from solid, Borate buffer pH 9, 7 days): 0.043 mg/mL (≈ 0.159 mM) | solubility at 14 days ([1]; 25 °C, pH 9, aqueous buffer, thermodynamic from solid, Borate buffer pH 9, 14 days): 0.005 mg/mL (≈ 0.0185 mM) | Solubility at 25° C. ([1]; Borate buffer pH 9, 3 days): Not detected | Solubility at 25° C. ([1]; Citrate buffer pH 6): Not detected | Solubility at 25° C. ([1]; Phosphate buffer pH 7): Not detected | Solubility at 25° C. ([1]; TRIS buffer pH 8): Not detected | solubility in water ([1]; pH 6-7, not detectable, lowest concentration): < 0.00002 g/g H2O | stability in pH-solubility profile ([1]; pH 9): degradation was observed | parts water required to dissolve one part genistein [2]: greater than 50,000 parts water

O=c1c(-c2ccc(O)cc2)coc2cc(O)cc(O)c12 [14C-Genistein]
treatment-related clinical signs ([3]; main study male mice, single IM 200 mg/kg or single IV 50 mg/kg): No treatment-related clinical signs were observed | Bioavailibility ([3]; blood): 49.7% | Bioavailibility ([3]; plasma): 83.5% | AUC0-inf [3, 6]: 223 μg eq · h/mL | AUC0-tlast [3, 6]: 222 μg eq · h/mL | Cmax [3, 6]: 33.3 μg eq/mL | Extrapolation [3, 6]: 0.663% | ke1 [3, 6]: 0.0242 h⁻¹ | tlast [3, 6]: 168 h | AUC0-inf [3, 7]: 387 μg eq · h/mL | AUC0-tlast [3, 7]: 375 μg eq · h/mL | Cmax [3, 7]: 63.1 μg eq/mL | Extrapolation [3, 7]: 3.18% | ke1 [3, 7]: 0.0145 h⁻¹ | tlast [3, 7]: 168 h | AUC0-inf [3, 8]: 112 μg eq · h/mL | AUC0-tlast [3, 8]: 99.7 μg eq · h/mL | Cmax [3, 8]: 60.1 μg eq/mL | Extrapolation [3, 8]: 11.4% | ke1 [3, 8]: 0.0118 h⁻¹ | tlast [3, 8]: 168 h | AUC0-inf [3, 9]: 116 μg eq · h/mL | AUC0-tlast [3, 9]: 116 μg eq · h/mL | Cmax [3, 9]: 108 μg eq/mL | Extrapolation [3, 9]: 0.191% | ke1 [3, 9]: 0.0307 h⁻¹ | tlast [3, 9]: 168 h | tolerability of dose level ([3]; mice, 200 mg/kg (IM) and 50 mg/kg (IV)): well tolerated | Blood to plasma ratios ([3]; mice, Group 2 IM 200 mg/kg, any time post dose): less than 1 | time post dose of highest mean concentration of radioactivity in plasma and whole blood ([3]; mice, Group 2 IM 200 mg/kg, first time point analyzed): 30 min | Excretion recovery ([3]; mice, Group 2 IM): ~92% | blood-to-plasma ratios ([3]; mice, Group 3 IV 50 mg/kg, 0 to 24 hours): less than 1 | time post dose of highest mean concentration of radiolabelled material in plasma and whole blood ([3]; mice, Group 3 IV 50 mg/kg, first time point analyzed): 30 min | Excretion recovery ([3]; mice, Group 3 IV): approximately 93% | time within which the majority of the dose administered was excreted ([3]; mice, both dose routes): ≤ 24 h | mean stability value (radiochemical) ([4]; intramuscular dose formulation (Group 2), post dose): 98.9% | mean stability value (radiochemical) ([4]; intramuscular dose formulation (Group 2), pre dose): 99.2% | mean stability value (radiochemical) ([4]; intravenous dose formulation (Group 1), post dose): 99.6% | mean stability value (radiochemical) ([4]; intravenous dose formulation (Group 1), pre dose): 100% | mean radiochemical stability ([4]; intramuscular dose formulation (Group 2), following dosing): 98.2% | mean radiochemical stability ([4]; intramuscular dose formulation (Group 2), prior to dosing): 98.5% | mean radiochemical stability ([4]; intravenous dose formulation (Group 3), post dose): 98.5% | mean radiochemical stability ([4]; intravenous dose formulation (Group 3), pre dose): 98.3% | Excretion recovery by 168 hours post dose ([5]; dogs, Group 1 IV): approximately 87.9% | Blood to plasma ratios ([5]; dogs, Group 1 IV bolus 20 mg/kg): less than 1 | time post dose of highest mean concentration of radiolabelled material in plasma and whole blood ([5]; dogs, Group 1 IV bolus 20 mg/kg, first time point analyzed): 15 min | Excretion recovery by 168 hours post dose ([5]; dogs, Group 2 IM): ~85.8% | time post dose of highest mean concentration of radioactivity in plasma and whole blood ([5]; dogs, Group 2 IM 20 mg/kg): 2 h | Blood to plasma ratios ([5]; dogs, Group 2 IM 20 mg/kg, any time post dose): less than 1 | Clinical signs ([5]; dogs, IV bolus 20 mg/kg and IM 20 mg/kg, considered to be dose-related): Clinical signs were observed in both groups | excretion mass balance ([5]; dogs, both dose routes): greater than 85% | time within which the majority of the dose administered was excreted ([5]; dogs, both dose routes): ≤ 48 h | overall mean excretion mass balance of radioactivity ([5]; dogs, both groups): 86-88 % of the administered dose | AUC0-inf [5, 10]: 122 μg eq · h/mL | AUC0-tlast [5, 10]: 117 μg eq · h/mL | Cmax [5, 10]: 40.4 μg eq/mL | Extrapolation [5, 10]: 16.8% | ke1 [5, 10]: 0.0130 h⁻¹ | tlast [5, 10]: 120 h | AUC0-inf [5, 11]: 227 μg eq · h/mL | AUC0-tlast [5, 11]: 201 μg eq · h/mL | Cmax [5, 11]: 94.4 μg eq/mL | Extrapolation [5, 11]: 11.3% | ke1 [5, 11]: 0.0138 h⁻¹ | tlast [5, 11]: 120 h | Bioavailibility ([5]; blood): 92.9% | Bioavailibility ([5]; plasma): 96.1% | AUC0-tlast [5, 12]: 108 μg eq · h/mL | Cmax [5, 12]: 5.39 μg eq/mL | tlast [5, 12]: 168 h | AUC0-inf [5, 13]: 228 μg eq · h/mL | AUC0-tlast [5, 13]: 193 μg eq · h/mL | Cmax [5, 13]: 10.9 μg eq/mL | Extrapolation [5, 13]: 15.1% | ke1 [5, 13]: 0.0092 h⁻¹ | tlast [5, 13]: 168 h
